Where two headings read alike, the source gives them in different places. Each block holds one compound with its values, some of them ahead of it.
Legend:
[1] = target: T1, TYRO3 (Rse) (Homo sapiens, UniProt Q06418); assay: IC50Profiler in vitro kinase activity; format: biochemical; conditions: ATP 10 μM
T1 construct: purchased
T1 sequence (Q06418 41-890): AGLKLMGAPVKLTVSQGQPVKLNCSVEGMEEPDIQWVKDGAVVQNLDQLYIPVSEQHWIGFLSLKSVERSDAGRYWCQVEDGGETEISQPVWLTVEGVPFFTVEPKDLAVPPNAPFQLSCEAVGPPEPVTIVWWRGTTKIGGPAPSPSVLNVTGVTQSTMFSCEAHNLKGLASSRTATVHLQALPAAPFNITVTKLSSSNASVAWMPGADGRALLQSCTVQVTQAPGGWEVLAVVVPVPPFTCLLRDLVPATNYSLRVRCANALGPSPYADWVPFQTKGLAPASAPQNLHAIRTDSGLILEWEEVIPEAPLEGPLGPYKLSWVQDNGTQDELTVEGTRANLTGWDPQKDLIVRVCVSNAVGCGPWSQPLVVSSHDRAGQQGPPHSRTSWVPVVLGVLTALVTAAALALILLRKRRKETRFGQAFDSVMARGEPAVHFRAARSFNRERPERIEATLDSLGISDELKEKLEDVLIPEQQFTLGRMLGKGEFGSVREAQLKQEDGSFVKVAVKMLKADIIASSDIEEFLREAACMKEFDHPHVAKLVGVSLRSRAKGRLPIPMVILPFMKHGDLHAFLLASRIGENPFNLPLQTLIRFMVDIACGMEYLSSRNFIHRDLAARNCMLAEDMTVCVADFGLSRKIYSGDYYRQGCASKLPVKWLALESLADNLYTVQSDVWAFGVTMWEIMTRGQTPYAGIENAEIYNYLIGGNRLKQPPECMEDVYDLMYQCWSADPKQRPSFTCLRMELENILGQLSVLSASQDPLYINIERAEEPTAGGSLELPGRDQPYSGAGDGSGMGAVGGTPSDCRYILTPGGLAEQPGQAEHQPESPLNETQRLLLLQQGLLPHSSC
Method: (§1) (1) Experimental Procedures for IC50Profiler™
(§2) Appropriate amounts of kinase and peptide substrates were separately mixed with different concentrations of famitinib malate (1 nM, 3 nM, 10 nM, 30 nM, 100 nM, 300 nM, 1 μM, 3 μM, 10 μM) and incubated for 60 min at room temperature. Magnesium acetate and [gamma-33P]-ATP were added to initiate the kinase-catalyzed reaction, and the reaction was carried out at room temperature for 40 minutes. After the reaction was finished, 3% phosphoric acid solution was added to terminate the reaction. 10 μL of the reaction mixture was taken and added onto a P30 filter membrane to be filtered. The membrane was washed with 75 mM phosphate buffer for 3 times and washed once with methanol to remove free [gamma-33P]-ATP. The protein was fixed, and the membrane was dried. The liquid scintillation analyzer was used to determine the amount of peptide substrate by counting the amount of 33P.

[2] = target: T2, Mer (Homo sapiens, UniProt Q12866); assay: IC50Profiler in vitro kinase activity; format: biochemical; conditions: ATP 10 μM
T2 construct: purchased
T2 sequence (Q12866 21-999): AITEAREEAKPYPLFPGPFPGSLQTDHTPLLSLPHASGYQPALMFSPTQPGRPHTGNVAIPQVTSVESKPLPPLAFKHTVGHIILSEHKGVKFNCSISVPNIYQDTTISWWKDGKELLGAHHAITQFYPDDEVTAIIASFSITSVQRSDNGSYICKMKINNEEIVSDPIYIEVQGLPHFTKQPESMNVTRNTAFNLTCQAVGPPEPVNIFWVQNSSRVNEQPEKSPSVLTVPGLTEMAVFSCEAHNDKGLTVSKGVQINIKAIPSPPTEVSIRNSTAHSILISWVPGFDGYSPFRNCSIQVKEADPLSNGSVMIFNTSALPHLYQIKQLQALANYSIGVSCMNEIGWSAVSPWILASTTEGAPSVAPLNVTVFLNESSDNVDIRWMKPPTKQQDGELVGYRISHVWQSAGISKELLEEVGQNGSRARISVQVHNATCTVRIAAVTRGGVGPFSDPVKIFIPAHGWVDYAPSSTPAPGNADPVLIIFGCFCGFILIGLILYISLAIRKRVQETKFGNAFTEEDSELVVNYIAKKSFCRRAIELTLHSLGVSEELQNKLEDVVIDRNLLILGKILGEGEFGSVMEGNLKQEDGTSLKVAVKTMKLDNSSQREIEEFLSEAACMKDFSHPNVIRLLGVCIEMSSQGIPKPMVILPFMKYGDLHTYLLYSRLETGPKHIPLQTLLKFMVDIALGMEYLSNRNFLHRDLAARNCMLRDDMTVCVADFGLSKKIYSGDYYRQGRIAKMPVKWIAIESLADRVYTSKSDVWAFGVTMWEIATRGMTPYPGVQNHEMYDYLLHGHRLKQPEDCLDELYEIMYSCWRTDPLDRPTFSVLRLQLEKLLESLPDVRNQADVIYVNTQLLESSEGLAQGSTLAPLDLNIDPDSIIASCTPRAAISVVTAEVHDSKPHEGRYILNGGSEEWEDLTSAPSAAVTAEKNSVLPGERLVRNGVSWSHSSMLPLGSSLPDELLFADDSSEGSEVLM
Method: as §1, §2

[3] = target: T3, Axl (Homo sapiens, UniProt P30530); assay: IC50Profiler in vitro kinase activity; format: biochemical; conditions: ATP 10 μM
T3 construct: purchased
T3 sequence (P30530 26-894): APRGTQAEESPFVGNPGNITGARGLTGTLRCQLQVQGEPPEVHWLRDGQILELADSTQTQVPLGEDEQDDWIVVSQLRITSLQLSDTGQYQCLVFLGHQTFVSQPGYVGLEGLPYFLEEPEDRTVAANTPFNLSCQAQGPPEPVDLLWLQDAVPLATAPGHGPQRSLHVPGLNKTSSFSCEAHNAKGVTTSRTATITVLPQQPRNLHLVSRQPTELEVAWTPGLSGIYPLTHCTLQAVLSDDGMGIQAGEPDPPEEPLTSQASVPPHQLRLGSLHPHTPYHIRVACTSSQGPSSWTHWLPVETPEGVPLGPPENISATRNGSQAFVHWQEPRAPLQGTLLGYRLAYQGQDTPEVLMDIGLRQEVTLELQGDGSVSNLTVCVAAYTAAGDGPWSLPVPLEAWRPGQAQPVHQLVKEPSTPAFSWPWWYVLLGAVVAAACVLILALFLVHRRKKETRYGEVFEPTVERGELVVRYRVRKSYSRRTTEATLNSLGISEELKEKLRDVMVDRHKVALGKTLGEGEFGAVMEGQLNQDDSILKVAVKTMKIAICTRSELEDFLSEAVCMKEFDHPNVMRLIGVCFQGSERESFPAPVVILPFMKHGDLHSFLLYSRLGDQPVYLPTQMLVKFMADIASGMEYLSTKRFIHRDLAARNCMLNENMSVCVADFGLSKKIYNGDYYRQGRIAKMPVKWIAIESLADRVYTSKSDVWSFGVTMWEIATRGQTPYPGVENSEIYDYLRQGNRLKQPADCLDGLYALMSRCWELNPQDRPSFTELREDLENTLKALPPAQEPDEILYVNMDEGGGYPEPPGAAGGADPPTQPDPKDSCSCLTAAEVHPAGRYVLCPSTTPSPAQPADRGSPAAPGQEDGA
Method: as §1, §2

[4] = clinical study, pharmacokinetics of Compound B; format: in vivo, human; conditions: for AUC: human, blood, oral
Excerpt: In the present disclosure, “AUC” refers to the area surrounded by the pharmacokinetic blood drug concentration curve versus time axis. This parameter is an important indicator for evaluating the degree of drug absorption, reflecting the exposure profiles of the drug in vivo. Since the blood drug concentration in pharmacokinetic studies can only be observed up to a certain time point t, AUC can be expressed in the following two means: AUC (0-t) and AUC (0-∞), wherein AUC (0-t) is derived from the trapezoidal area, and AUC (0-∞) is calculated by the formula: AUC (0-∞)=AUC (0-t)+end point concentration/end point elimination rate. The AUC mentioned in the present application refers to the averaged AUC0-24 of the patient reaching a steady state after a single administration or multiple administrations, preferably the averaged AUC0-24 of the patient reaching a steady state after multiple administrations (i.e. AUCss).
Compound A: intravenous injection, 200 mg, once every 3 weeks, 1 cycle every 3 weeks; Compound B: 20 mg or 15 mg, oral administration, once a day.
Among the 12 subjects who participated in the pharmacokinetic study, PK blood was collected from 9 subjects.

[5] = system: kidney cancer; conditions: Compound B 25 mg, q.d., alone; cited from earlier work
[6] = system: advanced/metastatic colorectal cancer; conditions: 25 mg, once a day, cited from earlier work
[7] = administration alone, 20 mg (n = 8)
[8] = co-administration with Compound A, 20 mg (n = 9)

- IC50 [1]: 326 nM
- IC50 [2]: 4.35 nM
- IC50 [3]: 36.8 nM
- Css, max, Geomean (Geometric % CV) [4, 7]: 59.9 (44.4) ng/mL
- Css, max, Mean ± SD [4, 7]: 64.3 ± 23.8 ng/mL
- Css, min, Geomean (Geometric CV %) [4, 7]: 29.8 (56.6) ng/mL
- Css, min, Mean ± SD [4, 7]: 33.2 ± 14.6 ng/mL
- Tss, max, Median (Min, Max) [4, 7]: 6 (2, 8) h
- exposure amount of Compound B compared to administration alone ([4]; co-administrated with Compound A): increased
- Css, max, Geomean (Geometric % CV) [4, 8]: 71.6 (24.3) ng/mL
- Css, max, Mean ± SD [4, 8]: 73.4 ± 16.8 ng/mL
- Css, min, Geomean (Geometric CV %) [4, 8]: 36.6 (28.8) ng/mL
- Css, min, Mean ± SD [4, 8]: 38.0 ± 11.0 ng/mL
- Tss, max, Median (Min, Max) [4, 8]: 6 (4, 10) h
- AUC ([4]; 20 mg, administration alone, 20 mg (n = 8), read-out: AUCss, Geomean (Geometric % CV)): 1090 ng·h/mL
- AUC ([4]; 20 mg, administration alone, 20 mg (n = 8), read-out: AUCss, Mean ± SD): 1180 ± 465 ng·h/mL
- AUC ([4]; co-administration with Compound A, 20 mg (n = 9), read-out: AUCss, Geomean (Geometric % CV)): 1330 ng·h/mL
- AUC ([4]; co-administration with Compound A, 20 mg (n = 9), read-out: AUCss, Mean ± SD): 1360 ± 300 ng·h/mL
Compound: CCN(CC)CCN1CCc2[nH]c(/C=C3\C(=O)Nc4ccc(F)cc43)c(C)c2C1=O [Compound B, famitinib malate]
- ORR [5]: 36%

Compound: CCN(CC)CCN1CCc2[nH]c(/C=C3\C(=O)Nc4ccc(F)cc43)c(C)c2C1=O [famitinib]
- improvement of progression-free survival (PFS) compared to the placebo group ([6]; period of 42 days): 1.3 months
- HR (PFS vs placebo) [6]: 0.596
- adverse events [6]: adverse events are under control
- disease control rate (DCR) [6]: 59.8%
- median survival (mOS) [6]: 7.5 months
- objective remission rate (ORR) [6]: 2.2%
